{"source": "patent US8455435B2", "about": "“Remedies for ischemia” (Ludwig-Maximilians-Universitat Munchen, priority 2006, dated 2013)", "key": {"myocardial infarction": {"system": "myocardial infarction", "test": "Survival after myocardial infarction (LAD occlusion), PTH treatment", "type": "in vivo, C57BL/6 mice", "conditions": "4 weeks after myocardial infarction, PTH 80 μg/kg/d s.c.", "protocol": "Myocardial infarction was induced in male C57BL/6 mice 8-12 weeks of age by surgical occlusion of the left anterior descending artery (LAD) through a left anterolateral approach. Mice were anesthetized by intraperitoneal injection of a mixture of 100 mg/kg ketamine (Sigma Chemical Co., St. Louis, Mo.) and 5 mg/kg Xylazine (Sigma), intubated and artificially ventilated by a mouse ventilator (HUGO SACHS, March, Germany) with 200 strokes/min and 200 μl/stroke. Animal care and all experimental procedures were performed in strict accordance to the German and National Institutes of Health animal legislation guidelines and were approved by the local animal care and use committees.\nAfter occlusion of the LAD, mice were divided into the following groups 1) subcutaneous administration of saline daily for 5 days, sacrificed at day 6 (n=10) and day 30 (n=15); 2) administration of rat PTH (1-34) daily for 5 and 14 consecutive days (80 μg/kg/d s.c., Bachem), sacrificed at day 6 (n=9) and day 30 (n=15); 3) sham operated animals sacrificed at day 30 (n=5), and not operated control animals receiving saline (n=6) sacrificed at day 6 and at day 30. All animals received BrdU (50 μg/kg/d) for 5 consecutive days. […]\nResults were expressed as mean±S.E.M. For statistical analyses the unpaired Student's t-test was used. Mortality was analyzed by the Kaplan-Meier-method. […]"}, "[1]": {"system": "BrdU and Ki67 positive cells", "test": "Immunohistochemistry of cell proliferation (BrdU, Ki67) after MI, PTH treatment", "type": "in vivo, C57BL/6 mice", "protocol": "After occlusion of the LAD, mice were divided into the following groups 1) subcutaneous administration of saline daily for 5 days, sacrificed at day 6 (n=10) and day 30 (n=15); 2) administration of rat PTH (1-34) daily for 5 and 14 consecutive days (80 μg/kg/d s.c., Bachem), sacrificed at day 6 (n=9) and day 30 (n=15); 3) sham operated animals sacrificed at day 30 (n=5), and not operated control animals receiving saline (n=6) sacrificed at day 6 and at day 30. All animals received BrdU ([…]) for 5 consecutive days. BrdU and cytokine treatment were started 12-24 hours after LAD occlusion.\nAt day 6 (n=10) and day 30 (n=10), hearts were excised. After fixation in 4% phosphate buffered formalin the hearts were cut transversally into 2 mm thick slices and embedded in paraffin. 4 μm thick sections were cut and mounted on positively charged glass slides. Standard histological procedures (hematoxilin/eosin and Masson trichrome) and immunostaining (see below) were performed.\nFor immunostaining mounted tissue sections were deparaffinized by rinsing 3×5 minutes in xylene followed by 2×5 minutes 100%, 2×5 minutes 96%, and 2×5 minutes 70% ethanol rinses. Endogenous peroxidases were quenched in 7.5% H2O2 in distilled water for 10 minutes. After rinsing in distilled water for 10 minutes and 2×5 minutes in TRIS-Buffer, pH 7.5, the slides were incubated at room temperature for 60 minutes with following primary antibodies: CD45 (rat anti-mouse, BD Pharmingen), ICAM-1 (goat anti-mouse, R&D), CD34 (rat anti-mouse, Linaris), Ki67 (goat anti-mouse, Santa Cruz) or BrdU (mouse monoclonal anti-BrdU, BD Pharmingen). Pre-treatment was performed for 30 minutes (microwave 750 W) using TRS 6 (Dako) for CD45, Glykol (biologo) for CD34, Retrievagen A (BD Pharmingen) for BrdU, and citrate buffer (10 mM, pH 6.0) for Ki67.\nFor detection of the immunoreaction Avidin-Biotinylated enzyme Comlex-Rat IgG, Avidin-Biotinylated enzyme Comlex-Goat IgG (both from Vector) or rabbit anti-goat IgG (DAKO) were used. Aminoethylcarbazol was used as chromogen (incubation 10 minutes). Thereafter, the slides were rinsed in running water and counterstained with hematoxilin Gill's Formula (Vector). Cover slides were mounted with Kaiser's glycerol gelatine. Doublestaining was performed for CD31 and Ki67 using an Avidin-Biotinylated enzyme Comlex-Goat IgG detection system and diaminobenzidine as chromogen and the APAAP-Rat system and chromogen red (all from Dako), respectively.\nQuantitative assessments: a) granulation tissue: the number of BrdU and Ki76 positive nuclei were related to the total number of nuclei quantified in the granulation tissue. b) arterioles: only arterioles with high proliferative activity were enclosed."}, "VEGF-A and VEGF-R1": {"system": "VEGF-A and VEGF-R1", "test": "VEGF-A/VEGF-R1 expression in infarct and borderzone after MI, PTH treatment", "type": "in vivo, mice", "excerpt": "FIGS. 18A-18B: Immunohistochemical staining of VEGF-A protein in the granulation tissue at the infarct borderzone and RT-PCR analysis of VEGF-A/VEGF-R1 expression • A) Representative staining of VEGF-A protein (brown) in the granulation tissue of sham operated (left), saline (middle) and PTH treated hearts (right). VEGF-A protein is mainly localized on infiltrated cells in the granulation tissue at the borderzone. • B) Bar graphs representing the relative fold increase of VEGF-A (left) and VEGF-1 receptor (right) mRNA expression of saline treated (n=3, striped bars) and of PTH treated myocardial tissue (n=3-5, black bars) normalized to non infarcted control mice (n=3) 48 hours after myocardial infarction. *p<0.05."}, "CD31 positive vessels": {"system": "CD31 positive vessels", "test": "Neovascularization (CD31 positive vessels) in granulation tissue after MI, PTH treatment", "type": "in vivo, mice", "conditions": "infarct and borderzone after PTH treatment", "excerpt": "C) Representative staining of CD31 positive vessels (left: 100×, right: 400×) in the granulation tissue harboring the borderzone of PTH treated (upper row) and saline treated animals (lower row). […] All sections nuclei (blue) were counterstained with hematoxyline. *p<0.05 saline vs. PTH."}}, "data": [{"substance": "rat PTH (1-34)", "values": [{"measurement": "survival rate", "setting": "myocardial infarction", "value": 60, "unit": "%"}, {"measurement": "survival rate", "setting": "myocardial infarction; listed as rPTH (1-34)", "value": 60.0, "unit": "%"}, {"measurement": "BrdU positive cells within the granulation tissue", "setting": "[1]; 6 days after MI", "value": "72.1±2.4", "unit": "%"}, {"measurement": "Ki67 and BrdU positive cells within the remote area", "setting": "[1]; 6 days after MI", "value": "less than 1%"}, {"measurement": "Ki67 positive cells within the granulation tissue", "setting": "[1]; 6 days after MI", "value": "34.8±4.8", "unit": "%"}, {"measurement": "Ki67 positive endothelial cells associated with CD31 positive arterioles", "setting": "[1]; compared to saline treated animals", "value": "high numbers"}, {"measurement": "BrdU positive cells in the periinfarct region", "setting": "[1]; day 30", "value": "99.1±25.0 /mm^2"}, {"measurement": "expression of VEGF-A and VEGF-R1", "setting": "VEGF-A and VEGF-R1", "value": "pronounced expression"}, {"measurement": "angiogenesis", "setting": "CD31 positive vessels", "value": "significantly increased"}]}]}
